Reference: patent US20110105623A1 (Biogenic Innovations, LLC, priority 2009, published 2011)
Several values for one entry are separate records, joined by “and”; a condition that tells them apart may be missing. Equal entries are not always repeated.

Columns and labels:
[1] = test system: Acidophilus plus Bifidus milk microorganisms; test: Growth in Acidophilus plus Bifidus milk fortified with MSM; settings: A/B milk […] MSM
Protocol: Then samples were evaluated every 7 days for a total of 28 days. […] The milks were bought at a local store. The Acidophilus milk was low fat (Darigold). The Acidophilus plus Bifidus milk contained 2% milkfat (Lucerne). […] The working solutions were held at 4° C. during the study.

[2] = test system: Lactobacillus acidophilus ATCC #4356; test: Growth and recovery in simulated intestinal tract environment
Protocol: The pH of the simulated intestinal fluid was 6.8. The microorganisms analyzed included Lactobacillus acidophilus ATCC #4356:
For the Lactobacillus acidophilus, bottled milk was used as the product. One milliliter of a 9 log solution of organism was placed into a 99 mL of bottled milk and mixed by hand shaking. […] The gastric acid was pre-warmed to 35° C. and kept at 35° C. for the duration of the 20 minutes. At the end of the 20 minute period, 10 mL of the simulated gastric acid, Lactobacillus acidophilus and milk mixture was placed into 90 mL of simulated intestinal fluid. The simulated intestinal fluid was pre-warmed to 35° C. and kept at 35° C. during the duration of the study.

E. coli = test: Log growth in MSM-lactose broth with or without DMSO; type: cell-based, Escherichia coli; settings: 24 hours
Protocol: Lactose broth, free of both NaCl and of proteins, was used as the media in this experiment. […] Each media composition was initially inoculated with 6.75×10^6 cfu/mL of E. coli. Cultures were incubated at 25° C. for seven days. Aliquots of each culture were taken after 24 hours of culturing and at the end of seven days in culture. Aliquots were serially diluted (with Modified Letheen diluent) and plated on trypto-soy agar plates.

[3] = test system: White Labs Edinburgh Ale yeast; test: Fermentation efficiency in production of beer (Scotch Ale); type: cell-based; settings: 0.5% MSM
From the text: This positive impact includes such organisms as fungi, yeast, and bacteria. Yeast cultures are involved in the production of beer during the fermentation process to produce ethanol and carbon dioxide. […] Wort is the liquid extracted from the mashing process during the brewing of beer or whisky. Wort contains the sugars that are fermented by the brewing yeast to produce alcohol.
This Procedure is detailed below.
After preparing the mash, the brewing process was started. […] Equipment was cleaned thoroughly with PBW. The wort chiller and filtered air stone were sanitized with brewing sanitizer (San Star Brewing Sanitizer). […] At 30 minutes of boil, a second aliquot (0.5 ounces) of Cascade hops was added. At 40 minutes of boil, third aliquot (0.5 ounces) of Cascade hops was added as well as 2 teaspoons of […] Moss. At 50 minutes of boil, a fourth aliquot (0.5 ounces) of Cascade hops was added. Wort was decanted from the brew kettle to the wort chiller and chilled to 74° F. The wort was then divided into two fermentors (each 21 liters in volume). […] Both fermentors were aerated for 25 minutes with sanitized filtered air stone.

[4] = test system: Bifidobacterium bifidum ATCC #29521; test: Growth in MRS broth + L-cysteine fortified with MSM
[5] = test system: Lactobacillus acidophilus milk; test: Growth in simulated gastric acid supplemented with MSM; settings: for Log Growth of L. acidophilus in milk average / Log Growth of L. acidophilus in milk in duplicate: simulated gastric acid
[6] = test system: MDCK cells (ATCC # CCL-34); test: Cytotoxicity of MSM; type: cell-based, Canis; settings: for Test Product Cytotoxicity (CPE): MDCK
From the text: Determination of test product cytotoxicity.
B. Toxicity Control for Pre-Treatment Test.

## Methylsulfonylmethane [MSM]
[1]; Day 7
  Log Growth of Lactobacillus acidophilus in Milk fortified with MSM: 10.42 logs
[1]; Day 21
  Log Growth of Lactobacillus acidophilus in Milk fortified with MSM: 5.37 logs
[1]; Day 28
  Log Growth of Lactobacillus acidophilus in Milk fortified with MSM: 3.94 logs
[1]; hour 0
  Log Growth of Lactobacillus acidophilus in Milk fortified with MSM: 6.41 logs
[1]; hour 8
  Log Growth of Lactobacillus acidophilus in Milk fortified with MSM: 8.67 logs
[1]; hour 24
  Log Growth of Lactobacillus acidophilus in Milk fortified with MSM: 9.16 logs
[1]; hour 32
  Log Growth of Lactobacillus acidophilus in Milk fortified with MSM: 8.87 logs
[1]; hour 48
  Log Growth of Lactobacillus acidophilus in Milk fortified with MSM: 8.3 logs
[1]; hour 56
  Log Growth of Lactobacillus acidophilus in Milk fortified with MSM: 8.56 logs
[1]; hour 72
  Log Growth of Lactobacillus acidophilus in Milk fortified with MSM: 8.45 logs
[1]; hour 80
  Log Growth of Lactobacillus acidophilus in Milk fortified with MSM: 9.82 logs
[1]; hour 96
  Log Growth of Lactobacillus acidophilus in Milk fortified with MSM: 8.61 logs
[1]; hour 104
  Log Growth of Lactobacillus acidophilus in Milk fortified with MSM: 8.92 logs
[2]; 5.0% MSM, 20 min Gastric
  Log Growth of Lactobacillus acidophilus: <1.00 logs
[2]; 5.0% MSM, Hour 3, simulated intestinal fluid
  Log Growth of Lactobacillus acidophilus: 1.62 logs
[2]; 5.0% MSM, Hour 8, simulated intestinal fluid
  Log Growth of Lactobacillus acidophilus: 2.33 logs
[2]; 5.0% MSM, Hour 24, simulated intestinal fluid
  Log Growth of Lactobacillus acidophilus: 6.39 logs
[2]; 5.0% MSM, Hour 30, simulated intestinal fluid
  Log Growth of Lactobacillus acidophilus: 6.63 logs
[2]; 5.0% MSM, Hour 36, simulated intestinal fluid
  Log Growth of Lactobacillus acidophilus: 8.65 logs
[2]; 5.0% MSM, Hour 48, simulated intestinal fluid
  Log Growth of Lactobacillus acidophilus: 10.17 logs
[2]; 5.0% MSM, Hour 54, simulated intestinal fluid
  Log Growth of Lactobacillus acidophilus: 13.33 logs
[2]; 5.0% MSM, Hour 60, simulated intestinal fluid
  Log Growth of Lactobacillus acidophilus: 12.76 logs
[2]; 5.0% MSM, Hour 72, simulated intestinal fluid
  Log Growth of Lactobacillus acidophilus: 12.78 logs
[2]; 5.0% MSM, Starting Inoculum
  Log Growth of Lactobacillus acidophilus: 7.02 logs
[2]; 5.0% MSM, hour 36
  log growth: 8.65 logs
[2]; 5.0% MSM, period after hour 48
  increase in growth: 3.16 logs
[2]; […] MSM, 20 min Gastric
  Log Growth of Lactobacillus acidophilus: <1.00 logs
[2]; […] MSM, Starting Inoculum
  Log Growth of Lactobacillus acidophilus: 6.86 logs
[2]; […] MSM, hour 36 to 48
  increase in growth: 3.65 logs
E. coli; 11% MSM
  reduced bacterial growth: about 2.2 logs
E. coli; 16% MSM
  reduced bacterial growth: about 1 log
[3]
  fermentor activity sooner than control: 58%
  sooner time of completion: 17-25%
  starter activity sooner than control: 80%
  time to activity, fermentor: 3.5 h
  time to maximum fermentation: 5 days
[4]; 0.125% MSM, Hr 0
  Log Growth of Bifidobacteruim bifidum in Media Fortified with MSM: 1.12 logs
[4]; 0.125% MSM, Hr 8
  Log Growth of Bifidobacteruim bifidum in Media Fortified with MSM: 2.89 logs
[4]; 0.125% MSM, Hr 16
  Log Growth of Bifidobacteruim bifidum in Media Fortified with MSM: 7.85 logs
[4]; 0.125% MSM, Hr 24
  Log Growth of Bifidobacteruim bifidum in Media Fortified with MSM: 9.06 logs
[4]; 0.125% MSM, Hr 32
  Log Growth of Bifidobacteruim bifidum in Media Fortified with MSM: 11.45 logs
[4]; 0.125% MSM, Hr 40
  Log Growth of Bifidobacteruim bifidum in Media Fortified with MSM: 10.80 logs
[4]; 0.125% MSM, Hr 48
  Log Growth of Bifidobacteruim bifidum in Media Fortified with MSM: 8.22 logs
[4]; 0.125% MSM, Hr 56
  Log Growth of Bifidobacteruim bifidum in Media Fortified with MSM: 7.25 logs
[4]; 0.125% MSM, Hr 64
  Log Growth of Bifidobacteruim bifidum in Media Fortified with MSM: 8.86 logs
[4]; 0.125% MSM, Hr 72
  Log Growth of Bifidobacteruim bifidum in Media Fortified with MSM: 6.59 logs
[4]; 0.125% MSM, Hr 80
  Log Growth of Bifidobacteruim bifidum in Media Fortified with MSM: 9.12 logs
[4]; 0.125% MSM, Hr 88
  Log Growth of Bifidobacteruim bifidum in Media Fortified with MSM: 9.12 logs
[4]; 0.125% MSM, Hr 96
  Log Growth of Bifidobacteruim bifidum in Media Fortified with MSM: <6.00 logs
[4]; 0.5% MSM, Hr 0
  Log Growth of Bifidobacteruim bifidum in Media Fortified with MSM: 1.00 logs
[4]; 0.5% MSM, Hr 8
  Log Growth of Bifidobacteruim bifidum in Media Fortified with MSM: 2.84 logs
[4]; 0.5% MSM, Hr 16
  Log Growth of Bifidobacteruim bifidum in Media Fortified with MSM: 7.45 logs
[4]; 0.5% MSM, Hr 24
  Log Growth of Bifidobacteruim bifidum in Media Fortified with MSM: 8.81 logs
[4]; 0.5% MSM, Hr 32
  Log Growth of Bifidobacteruim bifidum in Media Fortified with MSM: 11.22 logs
[4]; 0.5% MSM, Hr 40
  Log Growth of Bifidobacteruim bifidum in Media Fortified with MSM: 12.09 logs
[4]; 0.5% MSM, Hr 48
  Log Growth of Bifidobacteruim bifidum in Media Fortified with MSM: 9.39 logs
[4]; 0.5% MSM, Hr 56
  Log Growth of Bifidobacteruim bifidum in Media Fortified with MSM: 9.51 logs
[4]; 0.5% MSM, Hr 64
  Log Growth of Bifidobacteruim bifidum in Media Fortified with MSM: 10.34 logs
[4]; 0.5% MSM, Hr 72
  Log Growth of Bifidobacteruim bifidum in Media Fortified with MSM: 8.35 logs
[4]; 0.5% MSM, Hr 80
  Log Growth of Bifidobacteruim bifidum in Media Fortified with MSM: 10.38 logs
[4]; 0.5% MSM, Hr 88
  Log Growth of Bifidobacteruim bifidum in Media Fortified with MSM: 9.70 logs
[4]; 0.5% MSM, Hr 96
  Log Growth of Bifidobacteruim bifidum in Media Fortified with MSM: 8.82 logs
[4]; 0.5% MSM, hour 96
  log growth: 8.82 logs
[4]; 1% MSM, Hour 96
  log growth (estimated, outside the countable range): less than 6 logs
[4]; 1% MSM, Hr 0
  Log Growth of Bifidobacteruim bifidum in Media Fortified with MSM: 1.00 logs
[4]; 1% MSM, Hr 8
  Log Growth of Bifidobacteruim bifidum in Media Fortified with MSM: 2.73 logs
[4]; 1% MSM, Hr 16
  Log Growth of Bifidobacteruim bifidum in Media Fortified with MSM: 7.73 logs
[4]; 1% MSM, Hr 24
  Log Growth of Bifidobacteruim bifidum in Media Fortified with MSM: 8.81 logs
[4]; 1% MSM, Hr 32
  Log Growth of Bifidobacteruim bifidum in Media Fortified with MSM: 11.49 logs
[4]; 1% MSM, Hr 40
  Log Growth of Bifidobacteruim bifidum in Media Fortified with MSM: 11.19 logs
[4]; 1% MSM, Hr 48
  Log Growth of Bifidobacteruim bifidum in Media Fortified with MSM: 10.43 logs
[4]; 1% MSM, Hr 56
  Log Growth of Bifidobacteruim bifidum in Media Fortified with MSM: 10.57 logs
[4]; 1% MSM, Hr 64
  Log Growth of Bifidobacteruim bifidum in Media Fortified with MSM: 10.66 logs
[4]; 1% MSM, Hr 72
  Log Growth of Bifidobacteruim bifidum in Media Fortified with MSM: 8.34 logs
[4]; 1% MSM, Hr 80
  Log Growth of Bifidobacteruim bifidum in Media Fortified with MSM: 9.43 logs
[4]; 1% MSM, Hr 88
  Log Growth of Bifidobacteruim bifidum in Media Fortified with MSM: 10.41 logs
[4]; 1% MSM, Hr 96
  Log Growth of Bifidobacteruim bifidum in Media Fortified with MSM: <6.00 logs
[4]; 5% MSM, Hr 0
  Log Growth of Bifidobacteruim bifidum in Media Fortified with MSM: 1.12 logs
[4]; 5% MSM, Hr 8
  Log Growth of Bifidobacteruim bifidum in Media Fortified with MSM: 2.04 logs
[4]; 5% MSM, Hr 16
  Log Growth of Bifidobacteruim bifidum in Media Fortified with MSM: 6.10 logs
[4]; 5% MSM, Hr 24
  Log Growth of Bifidobacteruim bifidum in Media Fortified with MSM: 8.43 logs
[4]; 5% MSM, Hr 32
  Log Growth of Bifidobacteruim bifidum in Media Fortified with MSM: 11.13 logs
[4]; 5% MSM, Hr 40
  Log Growth of Bifidobacteruim bifidum in Media Fortified with MSM: 11.78 logs
[4]; 5% MSM, Hr 48
  Log Growth of Bifidobacteruim bifidum in Media Fortified with MSM: 10.70 logs
[4]; 5% MSM, Hr 56
  Log Growth of Bifidobacteruim bifidum in Media Fortified with MSM: 10.59 logs
[4]; 5% MSM, Hr 64
  Log Growth of Bifidobacteruim bifidum in Media Fortified with MSM: 14.32 logs
[4]; 5% MSM, Hr 72
  Log Growth of Bifidobacteruim bifidum in Media Fortified with MSM: 8.65 logs
[4]; 5% MSM, Hr 80
  Log Growth of Bifidobacteruim bifidum in Media Fortified with MSM: 12.20 logs
[4]; 5% MSM, Hr 88
  Log Growth of Bifidobacteruim bifidum in Media Fortified with MSM: 12.31 logs
[4]; 5% MSM, Hr 96
  Log Growth of Bifidobacteruim bifidum in Media Fortified with MSM: 9.60 logs
[4]; […] MSM, Hr 96
  Log Growth of Bifidobacteruim bifidum in Media Fortified with MSM: <6.00 logs
[4]; all MSM concentrations
  maximum reached before the control: 16 h
[5]; 5% MSM, 0 hours
  Log Growth of L. acidophilus in milk average: 0.41 logs
[5]; 5% MSM, 3 hours
  Log Growth of L. acidophilus in milk average: 0.41 logs
[5]; 5% MSM, 6 hours
  Log Growth of L. acidophilus in milk average: 0.91 logs
  Log Growth of L. acidophilus in milk in duplicate: 0.82 logs and 1 logs
[5]; 5% MSM, 9 hours
  Log Growth of L. acidophilus in milk average: 0.52 logs
  Log Growth of L. acidophilus in milk in duplicate: 0.52 logs
[5]; 5% MSM, 12 hours
  Log Growth of L. acidophilus in milk average: 1.10 logs
[5]; 5% MSM, 15 hours
  Log Growth of L. acidophilus in milk average: 1.43 logs
  Log Growth of L. acidophilus in milk in duplicate: 1.43 logs
[5]; 5% MSM, 24 hours
  Log Growth of L. acidophilus in milk average: 1.66 logs
  Log Growth of L. acidophilus in milk in duplicate: 1.67 logs and 1.64 logs
[5]; 5% MSM, 48 hours
  Log Growth of L. acidophilus in milk average: 1.33 logs
  Log Growth of L. acidophilus in milk in duplicate: 1.22 logs and 1.43 logs
[5]; 5.0% MSM, Hour 48
  decrease in growth: 0.33 logs
[5]; 5.0% MSM, at 24 hours
  increase in growth: 0.23 logs
[5]; […] MSM, 0 hours
  Log Growth of L. acidophilus in milk average: 0 logs
  Log Growth of L. acidophilus in milk in duplicate: 0 logs
[5]; […] MSM, 9 hours
  Log Growth of L. acidophilus in milk average: 0.41 logs
[5]; […] MSM, Hour 48
  decrease in growth: 0.38 logs
[5]; […] MSM, at 24 hours
  decrease in growth: 0.11 logs
[5]; printed […] MSM, at 24 hours
  increase in growth: 0.30 logs
[6]; 0.5%
  Test Product Cytotoxicity (CPE): 00
[6]; 1%
  Test Product Cytotoxicity (CPE): 00
[6]; 2%
  Test Product Cytotoxicity (CPE): 00
[6]; 3%
  Test Product Cytotoxicity (CPE): 00
[6]; 4%
  Test Product Cytotoxicity (CPE): 00
[6]; 5%
  Test Product Cytotoxicity (CPE): 00
[6]; MSM 6% through 0.5%
  cytotoxic effect: no visible cytotoxic effect
[6]; kills 50% of uninfected cells
  TC50: approximately 7%
